From PubChem BioAssay (NCI)
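These data come from cells grown in 96-well plates and exposed to compound for 48 hours at five concentrations. Definition used: TGI = concentration required for complete inhibition of growth.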

Key:
Experiment in all cases: inhibition of tumour cell growth, NCI panel, 48 h
[1] = system: OVCAR-4 ovarian
[2] = system: SNB-75 CNS
[3] = system: CCRF-CEM leukemia
[4] = system: LOX IMVI melanoma
[5] = system: MDA-MB-231 breast
[6] = system: MDA-N
[7] = system: SF-539 CNS
[8] = system: OVCAR-3 ovarian
[9] = system: HCC-2998 colon
[10] = system: SF-295 CNS
[11] = system: BT-549 breast
[12] = system: HS 578T breast
[13] = system: CAKI-1 renal
[14] = system: HL-60(TB) leukemia
[15] = system: DU-145 prostate
[16] = system: SN12C renal
[17] = system: MALME-3M melanoma
[18] = system: HT29 colon
[19] = system: ACHN renal
[20] = system: DMS 273 small cell lung

| Structure (SMILES) | TGI [1] [µM] | TGI [2] [µM] | TGI [3] [µM] | TGI [4] [µM] | TGI [5] [µM] | TGI [6] [µM] | TGI [7] [µM] | TGI [8] [µM] | TGI [9] [µM] | TGI [10] [µM] | TGI [11] [µM] | TGI [12] [µM] | TGI [13] [µM] | TGI [14] [µM] | TGI [15] [µM] | TGI [16] [µM] | TGI [17] [µM] | TGI [18] [µM] | TGI [19] [µM] | TGI [20] [µM] |
| --- | --- | --- | --- | --- | --- | --- | --- | --- | --- | --- | --- | --- | --- | --- | --- | --- | --- | --- | --- | --- |
| C=C(C)[C@@H](O)[C@H](O)C[C@H](C)C1CC[C@]2(C)C1=CC[C@@H]1[C@@]3(C)CC[C@@H](OC(C)=O)C(C)(C)[C@@H]3C[C@@H](OC3OC(COC(C)=O)C(O)C(O)C3O)[C@]12C (stereo partly drawn) | 9.17 | 8.32 | 5.95 | 3.31 | 6.64 | 8.55 | 11.7 | 4.79 | 1.69 | 4.69 | 10.3 | 10 | 11.8 | 4.2 | 11.1 | 11.3 | 4.81 | 4.04 | 6.36 |  |
| C/C(=N\Nc1nc2cc(Cl)ccc2s1)c1ccccn1 | > 100 | 31.3 | > 75.4 | 13.5 | 7.41 | > 100 | > 100 | 7.11 | > 80.8 |  | > 61.3 | > 100 | 46 | 0.586 | > 23.3 | 15.2 | > 25.6 |  | 13.4 |  |
| O=P(O)(O)c1ccc(-c2ccc(I)cc2)cc1 | > 100 | > 100 | > 100 | > 100 | > 100 | > 100 | > 100 |  | > 100 |  | > 100 | > 100 | > 100 | > 100 | > 100 | > 100 | > 100 | > 100 | > 100 |  |
| O=C(c1ccccc1)N1CCN(C(=S)NC2CCCCC2)C1=S | 40.8 | 31.6 | 45.1 | 31.1 | 21.1 | 42.8 | 27.7 | 30.7 | 33.1 | 54.4 | 44.2 | 50.3 | 62.4 | 50.3 | 57.9 | 40 | 32.1 | 44.1 | 58 |  |
| Cc1cc(=O)oc2cc(OCCCOc3ccc4c(C)cc(=O)oc4c3)ccc12 | > 100 | > 100 | > 100 | > 100 |  |  | > 100 | > 100 | > 100 | > 100 |  |  |  | > 100 |  | > 100 | > 100 | > 100 | > 100 | > 100 |
| O=C1/C(=C/c2ccc(O)cc2)CCCC1CN1CCCCC1 (stereo not drawn) | 25.8 | 22.5 | > 100 | 3.09 | 4.43 | 10.8 | 8.45 | 14.9 | 17.2 | 29.9 | 6.89 | 11.5 | 8.3 | 0.924 | 16.6 | 7.05 | 3.36 | 6.91 | 3.11 |  |
| COc1ccc2c(c1)Oc1cc(O)ccc1[C@H]2c1ccccc1C(=O)NC(C)c1ccccc1 (stereo partly drawn) |  | 35 | 72.7 | 31.6 |  |  | 29.7 | 29.4 | 30.3 | 25.9 |  |  | 33.7 | 44.1 |  | 31.6 | 46.2 | 41.5 | 29.8 | 28.4 |
| CC(C)=CC1C(C(=O)Oc2ccccc2C(C)C)C1(C)C (stereo not drawn) | > 100 | 62 | 59.6 | 33.4 | 52 | 90 |  | 34.6 | 33.4 | 33.8 | > 100 | > 100 | > 100 | 38.5 | > 100 | 40.1 | 34.1 | 36.9 | 33 |  |
| COc1cc(C2c3cc4c(cc3OC(NNc3ccccc3)C2C)OCO4)cc(OC)c1OC (stereo not drawn) | > 100 | > 62.7 | > 27.3 | > 37.8 | > 63.4 | 3.43 | 1.67 | 19.2 | 3.96 | 5.11 | 33.4 | > 43.4 | > 73 | 4.46 | > 31.2 | > 62 | > 38.5 | 6.61 | 27.5 |  |
| CC(=O)C(=O)NC1/C=C(C)\C=C/C(O)C/C=C(C)\C=C/C(O)CC2OC(=O)C1(C)C(=O)C2C (stereo not drawn) | > 100 | > 100 | > 100 | > 100 |  |  | > 100 | > 100 | > 100 | > 100 |  |  | > 100 |  |  | > 100 | > 100 | > 100 |  | > 100 |
| Cc1nnc(N)nc1/C=C\c1ccc(Cl)cc1Cl | > 100 |  | 86.4 | > 100 | > 100 | > 100 |  |  | 42.8 | 53.8 | > 100 | 99.2 | > 100 | 53 | > 100 | > 100 | 59.3 | 41.7 | > 100 |  |
| CC(C)NC(=O)OCc1c(COC(=O)NC(C)C)c(-c2ccc[n+](COC(=O)Cc3ccccc3)c2)n2c1CCC2 | 57.8 | > 100 | > 100 | > 100 | 74.7 | > 100 | > 100 | > 100 | > 100 | > 100 | 66.6 | > 100 | 34 | > 100 | 67.7 | > 100 | 97.2 | > 100 | 48.4 |  |
| Cn1c2ccc(F)cc2c2ccc3c(c21)C(=O)C=CC3=O | 11.1 | 97.8 | 5.27 | 22.8 | 16.5 | 27.7 | 35.8 | 19.6 | 67.7 | > 100 | > 45 | > 86.5 | 11.8 | 2 | 43.3 | 31 | 23.2 | 49.2 | 13.7 |  |
